{"source": "patent US9605047B2", "about": "“Compositions and methods for treating hypertension” (The Brigham and Women's Hospital, Inc., priority 2012, dated 2017)", "key": {"[1]": {"system": "HPAECs", "test": "Amplex Red assay of hydrogen peroxide levels in HPAECs", "format": "cell-based, human", "conditions": "aldosterone 10^−7 mol/L, 24 h, HPAECs; vs V 65.4±1.6; n=3", "procedure": "Human pulmonary artery endothelial cells (HPAECs) (Lonza) (male donors) were grown to confluence using phenol-free EGM-2 medium supplemented with 5% fetal bovine serum at 37° C., 5% CO2. Cells were passaged twice-weekly using 0.5% trypsin/EDTA, and experiments were performed on cells from passages 4-10. Aldosterone (Steraloids) and ET-1 (1-100 nM) (Sigma-Aldrich) were dissolved in dimethylsufloxide (10 nmol/L) and deoxygenated water, respectively, which served as vehicle controls. Cells were treated with aldosterone (10^−−10^−7 mol/L) for 24 h and in selected experiments co-incubated with the mineralocorticoid receptor inhibitor spironolactone (10 μM/l) (Sigma-Aldrich)."}, "[2]": {"system": "NOX4 and NOX4 subunit p22^phox", "test": "NOX4 and p22phox protein levels in HPAECs by Western analysis", "format": "cell-based, human", "conditions": "n=3", "protocol": "Cell culture and treatments. Human pulmonary artery endothelial cells (HPAECs) (Lonza) (male donors) were grown to confluence using phenol-free EGM-2 medium supplemented with 5% fetal bovine serum at 37° C., 5% CO2. Cells were passaged twice-weekly using 0.5% trypsin/EDTA, and experiments were performed on cells from passages 4-10. Aldosterone (Steraloids) and ET-1 (1-100 nM) (Sigma-Aldrich) were dissolved in dimethylsufloxide ([…]) and deoxygenated water, respectively, which served as vehicle controls. Cells were treated with aldosterone (10^−−10^−7 mol/L) for 24 h and in selected experiments co-incubated with the mineralocorticoid receptor inhibitor spironolactone (10 μM/l) (Sigma-Aldrich).\n(§1) Immunoblotting. Proteins were size fractionated electrophoretically using SDS-PAGE and transferred to polyvinylidene fluoride membranes. The membranes were incubated with anti-ETA (Santa Cruz Biotechnology), anti-ETB (Santa Cruz Biotechnology), anti-NOX4 (Santa Cruz Biotechnology), anti-p22P^phox (Santa Cruz), anti-eNOS (Cell Signaling), anti-PGC-1α (Santa Cruz Biotechnology), and anti-SF (Santa Cruz Biotechnology) antibodies overnight at 4° C. and visualized using the ECL detection system (Amersham Biosciences). In experiments to assess ETA expression, purified ETA protein (Novus Biological) was loaded to serve as an internal control."}, "[3]": {"system": "ETB-dependent NO. generation in HPAECs", "test": "NO. metabolites (NO2−, NO3−) in ET-1-stimulated HPAECs", "format": "cell-based, human", "conditions": "n=3", "procedure": "Cell culture and treatments. Human pulmonary artery endothelial cells (HPAECs) (Lonza) (male donors) were grown to confluence using phenol-free EGM-2 medium supplemented with 5% fetal bovine serum at 37° C., 5% CO2. Cells were passaged twice-weekly using 0.5% trypsin/EDTA, and experiments were performed on cells from passages 4-10. Aldosterone (Steraloids) and ET-1 (1-100 nM) (Sigma-Aldrich) were dissolved in dimethylsufloxide (10 nmol/L) and deoxygenated water, respectively, which served as vehicle controls. Cells were treated with aldosterone (10^−−10^−7 mol/L) for 24 h and in selected experiments co-incubated with the mineralocorticoid receptor inhibitor spironolactone (10 μM/l) (Sigma-Aldrich).\nNO. metabolites. Nitrite (NO2^−) and nitrate (NO3^−) were measured in cell culture medium containing 2% fetal bovine serum and L-arginine (1 mmol/l) (Sigma-Aldrich) by 1(H)-naphthotriazole fluorescence (Cayman) as previously reported.^1 To measure NO2^− levels in whole lung tissue, lung specimens were harvested from rats and snap frozen in liquid nitrogen."}, "[4]": {"system": "eNOS", "test": "eNOS activity ([14C] arginine, NOS activity kit) in HPAECs", "format": "cell-based, human", "conditions": "ET-1 (10 nM) stimulated HPAECs, without or with aldosterone; n=3", "protocol": "eNOS activity. eNOS activity was measured using the NOS activity kit (Cayman) according to the manufacturer's instructions with some modifications. Cells were washed with PBS containing 1 mM EDTA, transferred to a microcentrifuge tube, and centrifuged at 14,000×g at 4° C. for 2 min. The supernatant was decanted and homogenization buffer (250 mM Tris-HCl, pH 7.4, 6 μM BH4, 2 μM flavin adenine dinucleotide, and 2 μM flavin adenine mononucleotide) was added to the cell pellets. […] The samples were then centrifuged at 14,000×g for 30 seconds and radioactivity of the eluant was quantified in a liquid scintillation counter (Beckman-Coulter)."}, "[5]": {"system": "HPAECs", "test": "3-Nitrotyrosine immunohistochemistry in HPAECs", "format": "cell-based, human", "conditions": "V 24.1±3.3, n=5", "protocol": "3-Nitrotyrosine immunohistochemistry. Cells grown to confluence on glass chamber slides were fixed following treatments and anti-3-nitrotyrosine immunohistochemistry (Santa Cruz Biotechnology) was performed using the 3,3′-diaminobenzidine substrate method (Vector laboratories) as described previously.^1"}, "[6]": {"system": "ETA, ETB, eNOS", "test": "ETA, ETB and eNOS protein levels in HPAECs by Western analysis", "format": "cell-based, human", "protocol": "as §1, with “anti-[…]^phox” for “anti-p22P^phox”"}, "[7]": {"target": "T1, ETB cysteinyl thiols (region containing Cys405) (Homo sapiens, UniProt P24530)", "T1 construct": "endogenous in cells; host or cells: HPAECs (Lonza)", "T1 sequence (P24530 27-442)": "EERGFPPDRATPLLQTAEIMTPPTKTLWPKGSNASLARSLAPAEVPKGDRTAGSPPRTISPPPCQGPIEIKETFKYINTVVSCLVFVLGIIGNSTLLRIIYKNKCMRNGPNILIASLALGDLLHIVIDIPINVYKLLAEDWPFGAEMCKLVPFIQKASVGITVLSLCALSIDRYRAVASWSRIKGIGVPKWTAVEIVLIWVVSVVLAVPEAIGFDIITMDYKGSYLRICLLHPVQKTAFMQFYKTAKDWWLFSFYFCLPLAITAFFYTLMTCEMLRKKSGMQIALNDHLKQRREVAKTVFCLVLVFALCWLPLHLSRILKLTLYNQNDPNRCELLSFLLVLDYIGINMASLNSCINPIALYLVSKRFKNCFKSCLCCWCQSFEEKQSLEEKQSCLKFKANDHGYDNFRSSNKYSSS", "test": "Western analysis to detect ETB disulfide bond formation in HPAECs", "format": "cell-based", "conditions": "aldosterone 10^−7 mol/L 24 h or H2O2 200 μmol/L 20 min", "protocol": "Western analysis to detect ETB disfulfide bond formation. Western analysis to detect ETB disulfide bond formation was performed as described previously.^7 Briefly, protein extracts from cells were lysed in alkylating buffer containing 0.1 M Tris-HCL, pH 6.8, 1% SDS, 100 mM iodoacetamide, and 100 mM N-ethylmaleimide, and sonicated on ice for 5 min followed by a 30-min incubation at 25° C. Alkylated proteins were then precipitated with acetone. Proteins were resuspended in 50 μl of 0.1 M Tris-HCl, pH 7.4, 1% SDS; and disulfides were reduced with 5 mM tris(2-carboxyethyl)phosphine hydrochloride (TCEP). Following a 20-min incubation at 25° C., TCEP was removed with a Micro Bio-Spin™ column 6 (Bio-Rad), and 1% SDS was added to the eluant. The cysteines previously participating in a disulfide bond, now reduced, were labeled with 1 mM polyethylene glycol-conjugated maleimide (molecular mass 10 kDa) (Fluka). After a 1-h incubation at 25° C., proteins were precipitated with acetone, resuspended in 50 μl of non-reducing SDS electrophoresis buffer, and boiled for 10 min. Protein samples were then size-fractionated electrophoretically using SDS-PAGE, and transferred to a polyvinylidene fluoride membrane. […]"}, "[8]": {"system": "ETB region containing Cys405", "test": "ETB sulfenic acid (R-SOH) by immunoprecipitation and immunoblot in HPAECs", "format": "cell-based, human", "conditions": "aldosterone 10^−7 mol/L, 24 h, vs V, n=3", "protocol": "Co-immunoprecipitation of proteins. Cell monolayers were washed twice with ice-cold PBS and incubated on ice with RIPA buffer supplemented with various protease inhibitors (Millpore). Cells were scraped with a rubber policeman and samples were rotated at 4° C. for 15 min. Lysates were centrifuged at 14,000×g at 4° C. for 15 min and the then pre-cleared with a 50% slurry of Protein G agarose beads (Santa Cruz Biotechnology) mixed with PBS. Following removal of the beads by centrifugation, cell lysates were incubated with an anti-ETB or anti-PGC-1α antibody (Santa Cruz Biotechnology) overnight at 4° C. The immunocomplex was captured by incubating lysates with 50% Protein G agarose bead slurry at 4° C. for 1 h. Beads were collected by pulse centrifugation, resuspended in non-reducing sample buffer, and then boiled for 10 min to dissociate the immunocomplex from the beads. Western analysis was performed with an anti-SF (Santa Cruz) or anti-sulfenic acid (R—SOH) antibody (Millpore) as described above."}, "[9]": {"conditions": "aldosterone 10^−7 mol/L, 24 h, HPAECs"}}}
{"smiles": "C[C@]12CCC(=O)C=C1CC[C@@H]1[C@@H]2[C@@H](O)C[C@]2(C=O)[C@@H](C(=O)CO)CC[C@@H]12", "note": "[aldosterone]", "values": [{"measurement": "H2O2 accumulation", "setting": "[1]", "result": "100.6±3.5", "unit": "μM/mg protein"}, {"measurement": "protein levels of NOX4", "setting": "[2]; aldosterone 10^−7 mol/L", "result": "157.0±4.4", "unit": "% control"}, {"measurement": "protein levels of p22^phox", "setting": "[2]; aldosterone 10^−7 mol/L", "result": "829.5±295.6", "unit": "% control"}, {"measurement": "protein levels of NOX4", "setting": "[2]; aldosterone 10^−8 mol/L", "result": "146.3±12.4", "unit": "% control"}, {"measurement": "protein levels of p22^phox", "setting": "[2]; aldosterone 10^−8 mol/L", "result": "961±226.2", "unit": "% control"}, {"measurement": "protein levels of NOX4", "setting": "[2]; aldosterone 10^−9 mol/L", "result": "134.6±16.5", "unit": "% control"}, {"measurement": "protein levels of p22^phox", "setting": "[2]; aldosterone 10^−9 mol/L", "result": "1009.4±167.0", "unit": "% control"}, {"measurement": "total NO. metabolite (NOx: NO2^−+NO3^−) formation", "setting": "[3]; ET-1 (10 nM) stimulated HPAECs, without or with aldosterone", "result": "103.4±12.2", "unit": "μM/μg protein"}, {"measurement": "decrease in ETB-mediated NO2^− levels", "setting": "[3]; aldosterone 10^−7 mol/L, 24 h, then ET-1 10 nM, HPAECs", "result": 60.3, "unit": "%"}, {"measurement": "decrease in NO2^−/NO3^− ratio", "setting": "[3]; aldosterone in ET-1-stimulated HPAECs", "result": 62, "unit": "%"}, {"measurement": "eNOS activity", "setting": "[4]", "result": "7.6±2.4 [^14C] L-citrulline c.p.m./μg protein"}, {"measurement": "levels of 3-nitrotyrosine", "setting": "[5]", "result": "46.8±6.6", "unit": "arb. units"}, {"measurement": "expression of ETA", "setting": "[6]; [9]", "result": "Without influencing protein expression of ETB, or inducing"}, {"measurement": "protein expression of ETB", "setting": "[6]; [9]", "result": "Without influencing"}, {"measurement": "eNOS protein levels", "setting": "[6]; aldosterone-treated HPAECs", "result": "Without influencing"}, {"measurement": "ETB disulfide bond formation (bands at 70 kDa and 90 kDa)", "setting": "[7]", "result": "de novo formation of one or two disulfide bonds"}, {"measurement": "increase in ETB-SOH protein expression levels", "setting": "[8]", "result": 639, "unit": "%"}]}
